According to US12214058B2, “Imaging methods using deuterated compounds” (Genentech, Inc., priority 2014, dated 2025):
“And” between values parts separate entries of the source, which are not always exact repeats. Identical values can stand only once.

What was measured:
[1] = Microsomal stability assay, human liver microsomes; format: in vitro ADME; conditions: radiolabeled, 45 min incubation, n=3
Description: Microsomal stability assays The tracer [^18F][A]-d2 or [^18F][A] was dissolved in potassium phosphate (Kpi) buffer (100 mM) at concentration 500-600 μCi/mL. The non-radioactive 7 and 10 were dissolved in Kpi buffer at 10 μM concentration. The reaction vessel was charged with human or mouse liver microsome suspension (12.5 μL, 20 mg/mL) followed by Kpi buffer (388 μL, 10 mM), NADPH (50 μL, 10 mM) and incubated at 37° C. for 5-10 min. A solution of the radioactive [^18F][A]-d2 or [^18F][A] (50 μL, […]) or non-radioactive 7 or […] (50 μL, 10 μM) were added to the reaction vessel and the mixture was incubated at 37° C. […] The supernatant was analyzed by LCMS (System E).

[2] = Microsomal stability assay, mouse liver microsomes; format: in vitro ADME; conditions: radiolabeled, 5 min, n=3
Description: Microsomal stability assays The tracer [^18F][A]-d2 or [^18F][A] was dissolved in potassium phosphate (Kpi) buffer (100 mM) at concentration 500-600 μCi/mL. The non-radioactive 7 and 10 were dissolved in Kpi buffer at 10 μM concentration. The reaction vessel was charged with human or mouse liver microsome suspension (12.5 μL, 20 mg/mL) followed by Kpi buffer (388 μL, 10 mM), NADPH (50 μL, 10 mM) and incubated at 37° C. for 5-10 min. A solution of the radioactive [^18F][A]-d2 or [^18F][A] (50 μL, 250-300 μCi) or non-radioactive 7 or 8 (50 μL, 10 μM) were added to the reaction vessel and the mixture was incubated at 37° C. Aliquots (50 μL) of the reaction mixture were taken at 5, 15 and 45 minutes post addition of the tested compound, mixed with ice-cold acetonitrile (100 μL) and centrifuged. The supernatant was analyzed by LCMS (System E).

[3] = Dynamic PET in anesthetized rhesus; format: in vivo; conditions: 370 MBq i.v. bolus, PET over 240 min, versus [18F][A] and 18F T807
Description: [^18F][A]-d2, [^18F][A] or ^18F T807 (see Chien et al., J. Alzheimers Dis, 38:171-84 (2014)) (370 MBq (10 mCi)) was intravenous bolus injected into an anesthetized rhesus, and dynamic PET data acquired over 240 minutes. […] Data was collected from the same animal but on different days for each probe.

tau = experiment: Human PET imaging with [18F][A]-d2 (SUVR); format: in vivo; conditions: for SUVR Frontal lobe / SUVR Occipital lobe / SUVR Parietal lobe / SUVR Temporal lobe / SUVR White matter: cerebellum gray as reference
Source text: A total of 5 subjects, 3 Alzheimer's disease (AD) patients and 2 healthy volunteers (HV) was used in this study. This study protocol required each subject to complete the following components: screening evaluation, MRI, [^18F]florbetapir (AD subjects only) and [^18F][A]-d2. The screening procedures included neuropsychological assessment, vital signs, ECG, physical exam, MRI, and [^18F]florbetapir PET imaging to confirm presence of amyloid deposition in patients clinically diagnosed with probable AD. In addition, each subject completed clinical assessments and clinical safety labs to ensure the subject was medically stable to complete the study protocol. The screening procedures occurred within 30 days prior to [^18F][A]-d2 imaging. Eligible subjects participated in a single [^18F][A]-d2 imaging session. The distribution of tau binding was assessed in each of the subject groups (AD and HV) to evaluate for binding to tau. For each AD subject, the distribution of Aβ and tau was compared. Tau binding in brain was assessed with PET using [^18F][A]-d2. Radioligand binding was compared in brains of HV subjects who should have minimal to negligible concentrations of tau compared to patients with AD, who are expected to have moderate to high densities of tau.
All subjects received a single injection of [^18F][A]-d2. Subjects received a bolus intravenous injection of no more than 370 MBq (˜10 mCi).
Images were acquired using a HR+ PET camera in three-dimensional mode and were reconstructed using an iterative algorithm including scatter and measured attenuation correction (^68Ge source). Dynamic images were acquired upon injection (˜370 MBq). The scanning protocol consisted of 2 scanning segments in the two healthy control (HC) subjects, Subjects 1 & 2 (0-120 min and ˜150-180 min) and of 3 segments in the suspected AD patient, Subject 3 (0-60 min, 93-123 min and 147-177 min).
The MR volumetric image, a summed image of the first 15 min after tracer administration of [^18F][A]-d2 were coregistered using Statistical Parametic Mapping SPM8 (software provided by members and collaborators of the Wellcome Trust Centre for Neuroimaging). Alignment of the additional PET segments to the first PET segment was performed using in-house developed analysis software written in Matlab® (version 8 Release 2014a). Then, using the MRI scan for anatomical delineation, irregular regions of interest (ROI) were drawn for each subject in the frontal, parietal, occipital, and temporal lobes, cerebellum gray, and white-matter (centrum semi-ovale) using MIM® software.
[^18F][A]-d2 tissue time activity curves (TAC) were expressed in SUV (Standardized Uptake Value) using each subject's weight and the corresponding tracer injected dose: TAC(SUV)=TAC(Bq/cm^3)×1000 cm^3/kg×Subject's weight(kg)/Injected dose(Bq). TAC creation and all subsequent analyses were performed using in-house developed analysis software written in Matlab®.
The ratio to cerebellum gray or standardized uptake value ratio (SUVR) was calculated. […] A clear separation of the curves is observed as early as 30 min post injection. The SUVR curves in the two healthy controls remained relatively constant soon after injection. The SUVR in the AD subject reached a plateau in the 90-120 min interval.

[4] = 40-60 min interval, Subject 1 (HC)
[5] = 40-60 min interval, Subject 2 (HC)
[6] = 40-60 min interval, Subject 3 (AD)
[7] = 90-120 min interval, Subject 1 (HC)
[8] = 90-120 min interval, Subject 2 (HC)
[9] = 90-120 min interval, Subject 3 (AD)

With `[2H]C([2H])([18F])CC1CCN(c2ccn3c(n2)nc2ccccc23)CC1` [[^18F][A]-d2, 1,1-dideutero-2-(1-(benzo[4,5]imidazo[1,2-a]pyrimidine-2-yl)piperidin-4-yl)-1-[^18F]fluoroethane] the “fraction attributed to parent compound” value [1] was 91.7±0.21% and 67.1±6.3%, the “amount of parent compound” value [2] was 2.0±0.3% and the “stability / skull uptake of free fluoride” value [3] was “increased stability reflected by a reduction of skull uptake of free fluoride”. For the same compound, the “SUVR Frontal lobe” value (tau; [4]) was 1.08, the “SUVR Occipital lobe” value (tau; [4]) was 1.15 and the “SUVR Parietal lobe” value (tau; [4]) was 1.09. For the same compound, the “SUVR Temporal lobe” value (tau; [4]) was 1.14, the “SUVR White matter” value (tau; [4]) was 0.85 and the “SUVR Frontal lobe” value (tau; [5]) was 1.12. The “SUVR Occipital lobe” value (tau; [5]) was 1.19, the “SUVR Parietal lobe” value (tau; [5]) was 1.13 and the “SUVR Temporal lobe” value (tau; [5]) was 1.18. For the same compound, the “SUVR White matter” value (tau; [5]) was 0.80, the “SUVR Frontal lobe” value (tau; [6]) was 1.16 and the “SUVR Occipital lobe” value (tau; [6]) was 1.60. For the same compound, the “SUVR Parietal lobe” value (tau; [6]) was 1.35, the “SUVR Temporal lobe” value (tau; [6]) was 1.82 and the “SUVR White matter” value (tau; [6]) was 0.88. For the same compound, the “SUVR Frontal lobe” value (tau; [7]) was 1.07, the “SUVR Occipital lobe” value (tau; [7]) was 1.19 and the “SUVR Parietal lobe” value (tau; [7]) was 1.07. For the same compound, the “SUVR Temporal lobe” value (tau; [7]) was 1.13, the “SUVR White matter” value (tau; [7]) was 0.76 and the “SUVR Frontal lobe” value (tau; [8]) was 1.17. For the same compound, the “SUVR Occipital lobe” value (tau; [8]) was 1.21, the “SUVR Parietal lobe” value (tau; [8]) was 1.07 and the “SUVR Temporal lobe” value (tau; [8]) was 1.18. The “SUVR White matter” value (tau; [8]) was 0.66, the “SUVR Frontal lobe” value (tau; [9]) was 1.25 and the “SUVR Occipital lobe” value (tau; [9]) was 1.87. For the same compound, the “SUVR Parietal lobe” value (tau; [9]) was 1.52, the “SUVR Temporal lobe” value (tau; [9]) was 2.25 and the “SUVR White matter” value (tau; [9]) was 0.81. The “radioactivity uptake in bone tissue” value (tau; Subjects 1-3, human PET images) was “no radioactivity uptake in bone tissue”.
